Patent US20220323406A1, “METHODS AND COMPOSITIONS FOR DIFFERENTIATING STEM CELLS” (Massachusetts Institute of Technology, priority 2019, published 2022)
Counter-ions that a name gives are not always drawn.

Legend:
[1] = tested on: ENR+CD organoids (ISC to Paneth cell differentiation); test: Primary screen: basal (non-stimulated) lysozyme secretion LYZ.NS, 2.5-D 384-well ENR+CD organoid differentiation; assay type: cell-based, mouse
Excerpt: (§1) High-throughput screening.

[2] = tested on: ENR+CD organoids (ISC to Paneth cell differentiation); test: Primary screen: CCh-stimulated lysozyme secretion LYZ.S, 2.5-D 384-well ENR+CD organoid differentiation; assay type: cell-based, mouse; details: primary screen
Excerpt: as §1

ENR+CD organoids = test: Primary screen: ATP (CellTiter-Glo 3D, CTG) cell number/viability, 2.5-D 384-well ENR+CD organoids;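 further: compounds given at plating and again on day 3 over a 6-day differentiation from ENR+CV stem-cell-enriched precursors, ATP measured on day 6, plate median as control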
[3] = primary screen, standard z score, dose 0.08 uM
[4] = primary screen, standard z score, dose 0.40 uM
[5] = primary screen, standard z score, dose 2.00 uM
[6] = primary screen, standard z score, dose 10.00 uM
[7] = primary screen, dose 0.08 uM, FC relative to plate median
[8] = primary screen, dose 0.08 uM, standard z score
[9] = primary screen, dose 0.40 uM, FC relative to plate median
[10] = primary screen, dose 0.40 uM, standard z score
[11] = primary screen, dose 2.00 uM, FC relative to plate median
[12] = primary screen, dose 2.00 uM, standard z score
[13] = primary screen, dose 10.00 uM, FC relative to plate median
[14] = primary screen, dose 10.00 uM, standard z score
[15] = primary screen; dose 0.08 uM; FC vs plate median
[16] = primary screen; dose 0.40 uM; FC vs plate median
[17] = primary screen; dose 2.00 uM; FC vs plate median
[18] = primary screen; dose 10.00 uM; FC vs plate median

C[C@@H](NCCCc1cccc(C(F)(F)F)c1)c1cccc2ccccc12 [Cinacalcet HCl]
Dose.FC.LYZ.NS ([1]; primary screen, dose 0.08 uM): −0.062 log2 fold change
Dose.FC.LYZ.NS ([1]; primary screen, dose 0.40 uM): −0.023 log2 fold change
Dose.FC.LYZ.NS ([1]; primary screen, dose 2.00 uM): −0.022 log2 fold change
Dose.FC.LYZ.NS ([1]; primary screen, dose 10.00 uM): −0.091 log2 fold change
Z.LYZ.NS [1, 3]: −0.536
Z.LYZ.NS [1, 4]: −0.202
Z.LYZ.NS [1, 5]: −0.189
Z.LYZ.NS [1, 6]: −0.790
Dose.FC.LYZ.S ([2]; dose 0.08 uM): −0.084 log2 fold change
Dose.FC.LYZ.S ([2]; dose 0.40 uM): 0.039 log2 fold change
Dose.FC.LYZ.S ([2]; dose 2.00 uM): −0.025 log2 fold change
Dose.FC.LYZ.S ([2]; dose 10.00 uM): −0.130 log2 fold change
Dose.FC.CTG (ENR+CD organoids; primary screen, dose 0.08 uM): −0.444 log2 fold change
Dose.FC.CTG (ENR+CD organoids; primary screen, dose 0.40 uM): −0.298 log2 fold change
Dose.FC.CTG (ENR+CD organoids; primary screen, dose 2.00 uM): −0.012 log2 fold change
Dose.FC.CTG (ENR+CD organoids; primary screen, dose 10.00 uM): −0.451 log2 fold change

C[C@@H]1C(=O)O[C@H]2C[C@@]34[C@H]5C[C@@H](C(C)(C)C)[C@]36[C@@H](OC(=O)[C@@H]6O)O[C@@]4(C(=O)O5)[C@]21O [Ginkgolide A]
Dose.FC.LYZ.NS ([1]; primary screen, dose 0.08 uM): 0.045 log2 fold change
Dose.FC.LYZ.NS ([1]; primary screen, dose 0.40 uM): 0.025 log2 fold change
Dose.FC.LYZ.NS ([1]; primary screen, dose 2.00 uM): 0.030 log2 fold change
Dose.FC.LYZ.NS ([1]; primary screen, dose 10.00 uM): 0.052 log2 fold change
Z.LYZ.NS [1, 3]: 0.395
Z.LYZ.NS [1, 4]: 0.222
Z.LYZ.NS [1, 5]: 0.258
Z.LYZ.NS [1, 6]: 0.450
Dose.FC.LYZ.S ([2]; dose 0.08 uM): 0.124 log2 fold change
Dose.FC.LYZ.S ([2]; dose 0.40 uM): 0.161 log2 fold change
Dose.FC.LYZ.S ([2]; dose 2.00 uM): 0.002 log2 fold change
Dose.FC.LYZ.S ([2]; dose 10.00 uM): −0.028 log2 fold change
Dose.FC.CTG (ENR+CD organoids; primary screen, dose 0.08 uM): 0.005 log2 fold change
Dose.FC.CTG (ENR+CD organoids; primary screen, dose 0.40 uM): −0.017 log2 fold change
Dose.FC.CTG (ENR+CD organoids; primary screen, dose 2.00 uM): 0.040 log2 fold change
Dose.FC.CTG (ENR+CD organoids; primary screen, dose 10.00 uM): −0.012 log2 fold change
Z.CTG (ENR+CD organoids; [3]): 0.011
Z.CTG (ENR+CD organoids; [4]): −0.040
Z.CTG (ENR+CD organoids; [5]): 0.095
Z.CTG (ENR+CD organoids; [6]): −0.028

CO[C@H]1C[C@@H]2CC[C@@H](C)[C@@](O)(O2)C(=O)C(=O)N2CCCC[C@H]2C(=O)O[C@H]([C@H](C)C[C@@H]2CC[C@@H](OP(C)(C)=O)[C@H](OC)C2)CC(=O)[C@H](C)/C=C(\C)[C@@H](O)[C@@H](OC)C(=O)[C@H](C)C[C@H](C)/C=C/C=C/C=C/1C [Ridaforolimus (Deforolimus, MK-8669)]
Dose.FC.LYZ.NS [1, 7]: 0.005 log2 fold change
Z.LYZ.NS [1, 8]: 0.041
Dose.FC.LYZ.NS [1, 9]: 0.116 log2 fold change
Z.LYZ.NS [1, 10]: 1.012
Dose.FC.LYZ.NS [1, 11]: 0.074 log2 fold change
Z.LYZ.NS [1, 12]: 0.646
Dose.FC.LYZ.NS [1, 13]: 0.027 log2 fold change
Z.LYZ.NS [1, 14]: 0.237
Dose.FC.LYZ.S ([2]; dose 0.08 uM, FC relative to plate median): 0.050 log2 fold change
Dose.FC.LYZ.S ([2]; dose 0.40 uM, FC relative to plate median): 0.069 log2 fold change
Dose.FC.LYZ.S ([2]; dose 2.00 uM, FC relative to plate median): 0.019 log2 fold change
Dose.FC.LYZ.S ([2]; dose 10.00 uM, FC relative to plate median): 0.039 log2 fold change
Dose.FC.CTG (ENR+CD organoids; [7]): 0.423 log2 fold change
Z.CTG (ENR+CD organoids; [8]): 1.011
Dose.FC.CTG (ENR+CD organoids; [9]): 0.066 log2 fold change
Z.CTG (ENR+CD organoids; [10]): 0.157
Dose.FC.CTG (ENR+CD organoids; [11]): 0.276 log2 fold change
Z.CTG (ENR+CD organoids; [12]): 0.659
Dose.FC.CTG (ENR+CD organoids; [13]): 0.211 log2 fold change
Z.CTG (ENR+CD organoids; [14]): 0.505

COc1ccc(-c2cnc3c(-c4cccc5ncccc45)cnn3c2)cc1 [ML347]
Z.LYZ.NS [1, 8]: 1.079
Z.LYZ.NS [1, 10]: 1.150
Z.LYZ.NS [1, 12]: 0.600
Z.LYZ.NS [1, 14]: −1.078
Dose.FC.LYZ.NS [1, 15]: 0.124 log2 fold change
Dose.FC.LYZ.NS [1, 16]: 0.132 log2 fold change
Dose.FC.LYZ.NS [1, 17]: 0.069 log2 fold change
Dose.FC.LYZ.NS [1, 18]: −0.124 log2 fold change
Dose.FC.LYZ.S ([2]; dose 0.08 uM, FC vs plate median): 0.094 log2 fold change
Dose.FC.LYZ.S ([2]; dose 0.40 uM, FC vs plate median): 0.111 log2 fold change
Dose.FC.LYZ.S ([2]; dose 2.00 uM, FC vs plate median): 0.072 log2 fold change
Dose.FC.LYZ.S ([2]; dose 10.00 uM, FC vs plate median): −0.202 log2 fold change
Z.CTG (ENR+CD organoids; [8]): 0.439
Z.CTG (ENR+CD organoids; [10]): 0.500
Z.CTG (ENR+CD organoids; [12]): 0.328
Z.CTG (ENR+CD organoids; [14]): −0.404
Dose.FC.CTG (ENR+CD organoids; [15]): 0.184 log2 fold change
Dose.FC.CTG (ENR+CD organoids; [16]): 0.209 log2 fold change
Dose.FC.CTG (ENR+CD organoids; [17]): 0.137 log2 fold change
Dose.FC.CTG (ENR+CD organoids; [18]): −0.169 log2 fold change
